According to patent US20230320967A1, “COMPOSITION, USE OF THE COMPOSITION, COSMETIC METHOD FOR MODULATING THE PRODUCTION OF SEBUM” (CHEMYUNION LTDA., priority 2020, published 2023):
Peptide text beside a SMILES is read from it.

Assays:
[1] = tested on: skin oiliness (sebum) of female volunteers with mixed or oily skin; experiment: Clinical testing: face oiliness by sebum-metric index, Sebumeter SM 815; type: in vivo, human; details: 0.01% w/w in cosmetic base (BC-tripeptide), twice a day, 20 female volunteers
Method: For the clinical efficacy evaluation, the tripeptide (Glu-Val-Phe) was applied in a cosmetic base (BC) at a concentration of 0.01% (w/w) and compared to a placebo base, without active (Table 2).
The study was conducted with 20 female volunteers, between 18 and 50 years old, with mixed or oily skin, oily skin with a sebum-metric index above 100, who used the product (BC-placebo or BC-tripeptide) twice a day (morning and evening) for 28 days.
The participants were referred to the Instrumental Sector for acclimatizing for at least 20 minutes, in a room with controlled temperature and humidity (T=20±2° C. and RH=50±5%). After the acclimatizing period, sebum-metrics measurements were performed on the forehead. […]
The Sebumeter photometrically measures the increase in transparency of a special plastic strip that becomes translucent when coated with sebum. […] The strip is supported by a mirror which presses it against the skin of the region to be evaluated with a fixed pressure of 10N by means of a spring. […] The strip transparency is evaluated by a photocell present in the device where the plastic strip is inserted, and the light transmission represents the amount of sebum per area and the results are expressed in absolute values (μg sebum/cm^2). […]

[2] = tested on: SEBO662AR cell model; experiment: Cytotoxicity in vitro (non-cytotoxic concentration); type: cell-based, human; details: SEBO662AR study
[3] = tested on: SEBO662AR cell model; experiment: Sebum production inhibition in SEBO662AR sebocyte model, androgen-free lipogenic medium, Bodipy lipid droplet imaging; type: cell-based, human; details: 500 micromolar, comparable to cerulenin 10 micromolar
Method: Sebocytes are cells found in the sebaceous glands and that, in the differentiation process, accumulate lipid droplets in their interior. The SEBO662AR cell model is an immortalized lineage of human sebocytes that responds to lipogenic stimuli and that can be used to select potential sebum production inhibitors.
A sebum production inhibition study was conducted in the SEBO662AR cell model cultivated in androgen-free lipogenic medium, and the formation of droplets was monitored by using Bodipy® fluorescent probes and image analysis. As an inhibition reference, cerulenin was applied at a concentration of 10 micromolar—a fatty acid synthase inhibitor which, although effective in reducing sebum production, is a very labile molecule as it has unsaturations and an epoxy group in its structure, so that its use is restricted to laboratory testing.

CC(C)[C@H](NC(=O)[C@@H](N)CCC(=O)O)C(=O)N[C@@H](Cc1ccccc1)C(=O)O [SEQ ID No. 1, H-Glu-Val-Phe-OH] (H-Glu-Val-Phe-OH)
decrease of the average of the sebum-metric indices vs initial time (D0) ([1]; after 14 days): 31.54% | reduction of average oiliness vs initial time (D0) ([1]; after 28 days): 29.75% | higher non-cytotoxic concentration [2]: 500 µM | reduction in sebum production [3]: 28%
